This note sets out measurements from article PMC9481570, “A small molecule antagonist of SMN disrupts the interaction between SMN and RNAP II” (Nature Communications, 2022).

In this test the target is T1, SETDB1 (Homo sapiens, UniProt Q15047).
T1 construct: SETDB1 (aa 190–410); His (N, cleaved yes); made in house; host or cells: E. coli BL21 (DE3) Codon plus RIL
Kind of test: ITC binding to SETDB1. The following applies: Fig. 1c. The text has this:
The coding DNA fragments of following Tudor domains were cloned into pET28-MHL vector: SMN (aa 82–147), UHRF1 (aa 126–285), SMNDC1 (aa 53–130), TDRD3 (aa 554–611), SND1 (aa 650–910), TDRD2 (aa 327–420), FXR1 (aa 2–132), PHF1 (aa 28–87), SGF29 (aa 115–293), JMJD2A (aa 897–1101), 53BP1 (aa 1483–1606), SETDB1 (aa 190–410), LBR (aa 1–67), ZGPAT (aa 120–271). The coding regions of chromodomain of CBX7 (aa 8–62), PWWP domain of DNMT3A (aa 275–417), WD40 repeats of WDR5 (aa 24–334) and CW domain of ZCWPW2 (aa 21–78) were also subcloned into pET28-MHL vector to generate N-terminally His-tagged fusion protein. The MBT repeats of L3MBTL1 (aa 200–522) and L3MBTL2 (aa 170–625) were subcloned into pET28GST-LIC vector to generate N-terminally GST-His-tagged fusion protein. All the plasmids were generated by ligase independent cloning (Vazyme Biotech, C112 or ABclonal Technology, RK21020). […] The molecular weight of all protein samples was measured by mass spectrometry.
For the ITC measurement, the concentrated proteins were diluted into 20 mM Tris-HCl, pH 7.5, 150 mM NaCl (ITC buffer); the lyophilized compounds were dissolved in the same buffer, and the pH value was adjusted by adding 2 M NaOH or 2 M HCl. […] Compound concentrations were calculated from the mass and the volume of the solvent. […]

In turn, `Cn1c2c(c(=N)c3c1CCC3)CCC2` [Compound 1, 4-methyl-2,3,4,5,6,7-hexahydrodicyclopenta[b,e]pyridin-8(1H)-imine] showed a Kd above 244 µM.
